These results are taken from article PMC8911944, “Screening of Natural Products Inhibitors of SARS-CoV-2 Entry” (Molecules, 2022).

This assay has as its system pseudotyped HIV-1 with the D614G SARS-CoV-2 spike glycoprotein. It is filed as cell-based.
As for `C=C1CC/C=C(\C)CC[C@@H]2[C@@H]1CC2(C)C` [β-Caryophyllene], the “IC50 (50% inhibitory concentration)” value is listed as 98.5.

`CC1=C[C@H](O)[C@H]2C[C@@H]1C2(C)C` (relative stereo) [cis-Verbenol]: the “Antiviral Activity (% of Inhibition)” value was −171.26 ± 32.54%.

In the case of `C/C=C/c1ccc(OC)cc1` [Trans-anethole], the “Antiviral Activity (% of Inhibition)” value is reported as 5.02 ± 0.71%.

With `C/C=C/[C@H]1OC(=O)C=C[C@H]1OC(C)=O` [Acetylphomolactone], the “Antiviral Activity (% of Inhibition)” value is −0.65 ± 6.16%.

Consider S-Limonene, for which the “Antiviral Activity (% of Inhibition)” value is −62.63 ± 22.17%.

`CC(=O)OC1C=CC(=O)OC1C1OC1C` (stereo not drawn) [Asperline]: the “Antiviral Activity (% of Inhibition)” value was −15.48 ± 8.34%.

As for Isoasperline, the “Antiviral Activity (% of Inhibition)” value is recorded as −19.82 ± 10.21%.

With `C=C1CC[C@H]2O[C@]2(C)CC[C@@H]2[C@@H]1CC2(C)C` [Caryophyllene Oxide], the “Antiviral Activity (% of Inhibition)” value is 43.82 ± 6.31%.

In the case of `C=C(C)[C@H]1CC=C(C)CC1` [R-Limonene], the “Antiviral Activity (% of Inhibition)” value is listed as −27.90 ± 16.41%.

Turning to `CC(O)[C@@H]1NC(=O)c2cccn2C1=O` (stereo partly drawn) [Macrophominol], the “Antiviral Activity (% of Inhibition)” value was −91.39 ± 26.65%.

As for `C[C@H]1CC[C@@H](C(C)(C)O)CC2=C1CC[C@@H]2C` [Guaiol], the “Antiviral Activity (% of Inhibition)” value is on record as −60.20 ± 8.02%.

Consider `CC(=O)C1COC(O)C1C` (stereo not drawn) [Botryodiplodin], for which the “Antiviral Activity (% of Inhibition)” value is −88.21 ± 12.51%.
